Data taken from patent US20030212084A1, “Naphthrydine compounds and their azaisosteric analogues as antibacterials” (priority 1998, published 2003).
In brackets after ≈: the same amount, converted by molar mass.

How the values were obtained:
Type in all cases: cell-based
some of these organisms = test: MIC against various organisms (unspecified subset); conditions: against some of these organisms (those of the table)
Experimental: (§1) The MIC (μg/ml) of compounds 1 and 2 against various organisms was determined.

S. aureus WCUH29 = test: MIC against S. aureus WCUH29; conditions: Staphylococcus aureus
Experimental: as §1

S. aureus Oxford = test: MIC against S. aureus Oxford; conditions: Staphylococcus aureus
Experimental: as §1

S. pneumoniae R6 = test: MIC against S. pneumoniae R6; conditions: Streptococcus pneumoniae
Experimental: as §1

E. faecalis I = test: MIC against E. faecalis I; conditions: Enterococcus faecalis
Experimental: as §1

M. catarrhalis Ravasio = test: MIC against M. catarrhalis Ravasio; conditions: Moraxella catarrhalis
Experimental: as §1

S. aureus Carter 37 = test: MIC against S. aureus Carter 37; conditions: Staphylococcus aureus, CARTER37
Experimental: as §1

SMILES | MIC (some of these organisms) [µg/mL] | MIC (S. aureus WCUH29) [µg/mL] | MIC (S. aureus Oxford) [µg/mL] | MIC (S. pneumoniae R6) [µg/mL] | MIC (E. faecalis I) [µg/mL] | MIC (M. catarrhalis Ravasio) [µg/mL] | MIC (S. aureus Carter 37) [µg/mL]
CCCCCCCN1CC[C@@H](CC(=O)Nc2ccnc3ccc(OC)nc23)[C@@H](CC(N)=O)C1.O=C(O)C(=O)O [Example 6, [3R,4S]-1-Heptyl-4-N-(6-methoxy-1,5-naphthyridin-4-yl)-3,4-piperidinediacetamide Oxalate] | ≤ 1 | – | – | – | – | – | –
C=C[C@H]1CN(CCCCCCC)CC[C@H]1CCN(C)c1ncnc2ccc(OC)cc12 [Example 1, [3R, 4S]-1-Heptyl-4-[N-methyl-N-(6-methoxy-quinazolin-4-yl)-2-aminoethyl]-3-ethenylpiperidine] | – | 0.5 (≈ 1.18 µM) | 0.5 (≈ 1.18 µM) | 0.5 (≈ 1.18 µM) | 4 (≈ 9.42 µM) | 0.5 (≈ 1.18 µM) | 0.5 (≈ 1.18 µM)
CCCCCCCN1CCC(C(=O)Nc2ccnc3ccc(OC)nc23)CC1 [Example 3, 1-Heptyl-4-(6-methoxy-1,5-naphthyridin-4-yl)aminocarbonyl Piperidine] | ≤ 1 | – | – | – | – | – | –
C=C[C@H]1CN(CCCCCCC)CC[C@H]1CC(O)Cc1ccnc2ccc(OC)nc12 (mixture of isomers) [Example 5, [3R,4S]-1-Heptyl-3-ethenyl-4-[2-(R,S)-hydroxy-3-(6-methoxy-1,5-naphthyridin-4-yl)propyl]piperidine] | ≤ 1 | – | – | – | – | – | –
C=C[C@H]1CN(CCCCCCC)CC[C@H]1CCOc1ncnc2ccc(OC)cc12 [Example 2, [3R, 4S]-1-Heptyl-4-[2-(6-methoxyquinazolin4-oxy)ethyl]-3-ethenylpiperidine] | – | 4 (≈ 9.72 µM) | 4 (≈ 9.72 µM) | 8 (≈ 19.4 µM) | 8 (≈ 19.4 µM) | 4 (≈ 9.72 µM) | 4 (≈ 9.72 µM)
